Several values for one entry are separate records, joined by “and”; a condition that tells them apart may be missing. Equal values may be shown once.
Tested on: plasma DHO
Test: DHO plasma accumulation in MOLM-13 tumor-bearing mice
Format: in vivo, NCG mice
Parameters: unit not given here
Details: male mice, per mouse
Description: Male 8- to 12-week-old NCG mice were engrafted with 1 × 10^5 cells via tail vein i.v. injection. […] Figure 3B and Figure 4, A and B, share the same vehicle group. page 6: Plasma samples were obtained following appropriate dosing administration and saved in the -80°C freezer till the time of analysis. Analyses by LC-MS/MS followed sample extraction by protein precipitation and separation by Ultra Performance Liquid Chromatography (UPLC, Waters Corporation, MA, USA) using a C18 column, 1.7um, 2.1x50mm, Mobile Phase A: 5:95:0.1 (v:v:v) Acetonitrile:Water:Formic Acid, Mobile Phase B: 50:50:0.1 (v:v:v) Methanol:Acetonitrile:Formic Acid. MS/MS analyses were performed on an API-6500 (Absciex MA, USA) in positive mode using an electrospray source at 550°C. The internal standard was d4-AEA monitored at 352.2 and 66.0 m/z transitions and the target analyte, HOSU-53, was monitored at 416.5 and 331.1 m/z transitions. The assay was qualified between 10-5,000 ng/ml HOSU53 to be within ±20% for QCs above the LLOQ in this range and ±25% at the LLOQ. DHO concentration quantification in mouse plasma samples. Plasma samples were obtained following appropriate dosing administration and saved in the -80°C freezer till the time of analysis. Analyses by LC-MS/MS followed sample extraction by protein precipitation and separation by Ultra Performance Liquid Chromatography (UPLC, Waters Corporation, MA, USA) using a Phenomenex Aqua C18 100x4.6mm, 3uM, […], Mobile Phase A: 100:0.1 (v:v) Water:Formic Acid, Mobile Phase B: 100:0.1 (v:v) Methanol:Formic Acid. MS/MS analyses were performed on an API-4000 (Absciex MA, USA) in negative mode using an electrospray source at 550°C. The internal standard was labeled 13C14_L-Dihydroorotic Acid monitored at 161.3 and 117.1 m/z transitions and the target analyte, L-Dihydroorotic Acid (DHO), was monitored at 157.0 and 70.0 m/z transitions. The assay was qualified between 10.0-30,000 ng/ml DHO to be within ±20% for QCs above the LLOQ in this range and ±25% at the LLOQ.

## CCCCOc1cccc(-c2ccc(-c3cc(C(=O)O)c4cc(F)ccc4n3)cc2)c1 [HOSU-53]
Day 1, 4 mpk PO, 4 mg/kg
  DHO AUC (Figure 3C y value): 21.3526 and 23.5341 and 32.163
Day 1, 10 mpk PO, 10 mg/kg
  DHO AUC (Figure 3C y value): 124.368 and 142.962
Day 1, 20 mpk PO, 20 mg/kg
  DHO AUC (Figure 3C y value): 335.03 and 368.431
Day 1, 30 mpk PO, 30 mg/kg
  DHO AUC (Figure 3C y value): 473.057 and 298.48 and 280.181
Day 14, 4 mpk PO, 4 mg/kg
  DHO AUC (Figure 3C y value): 78.3977 and 135.263 and 128.423
Day 14, 10 mpk PO, 10 mg/kg
  DHO AUC (Figure 3C y value): 243.197 and 313.781 and 310.505
Day 14, 20 mpk PO, 20 mg/kg
  DHO AUC (Figure 3C y value): 796.864 and 742.741 and 1170.82
Day 14, 30 mpk PO, 30 mg/kg
  DHO AUC (Figure 3C y value): 464.129 and 594.047 and 535.223
